The source of these data is US10570108B2, “Substituted benzofuran compounds for the treatment of hepatitis C” (BRISTOL-MYERS SQUIBB COMPANY, priority 2015, dated 2020).

One may read the EC50 as the concentration giving half of the maximal effect. A lower EC50 goes with an effect from little substance.

The test system of the test is HCV replicon. Description: HCV replicon luciferase assay. The class given is cell-based. The conditions noted are these: Hepatitis C virus, Huh-7, 72 h. On the procedure: Cell lines. The cell lines used to evaluate compounds consist of a human hepatocyte derived cell line (Huh-7) that constitutively expresses a genotype 1b (Con-1) HCV replicon or a genotype 1b (Con-1) HCV replicon with an asparagine replacing the cysteine at amino acid 316, or a genotype 2a (JFH-1) replicon, containing a Renilla luciferase reporter gene. These cells were maintained in Dulbecco's modified Eagle medium (DMEM) containing 10% FBS, 100 U/mL penicillin/streptomycin and 1.0 mg/mL G418.
HCV replicon luciferase assay. To evaluate compound efficacy, titrated compounds were transferred to sterile 384-well tissue culture treated plates, and the plates were seeded with HCV replicon cells (50 μL at a density of 2.4×10^3 cells/well) in DMEM containing 4% FBS (final DMSO concentration at 0.5%). After 3 days incubation at 37° C., cells were analyzed for Renilla Luciferase activity using the EnduRen substrate (Promega cat #E6485) according to the manufacturer's directions. Briefly, the EnduRen substrate was diluted in DMEM and then added to the plates to a final concentration of 7.5 μM. The plates were incubated for at least 1 h at 37° C. then read on a Viewlux Imager (PerkinElmer) using a luminescence program. The 50% effective concentration (EC50) was calculated using the four-parameter logistic formula noted above.
For `CCN(CC)c1cc2oc(-c3ccc(F)cc3)c(C(=O)NC)c2cc1-c1cccc(C(=O)N[C@H]2C(O)O[C@H](CO)[C@@H](O)[C@@H]2O)c1` (some centres unmarked) [Compound 1001], it took 2820 nM to reach a half-maximal effect (EC50).
The compound `CCN(CC)c1cc2oc(-c3ccc(F)cc3)c(C(=O)NC)c2cc1-c1cccc(C(=O)NCCC2(O)CCCC2)c1` [Compound 1002] displayed an EC50 below 100 nM.
Regarding `CCN(CC)c1cc2oc(-c3ccc(F)cc3)c(C(=O)NC)c2cc1-c1cccc(C(=O)NC[C@H]2CCCC[C@H]2O)c1` [Compound 1003], the EC50 is below 100 nM.
The compound `CCOC(=O)[C@@H]1CCCC[C@@H]1NC(=O)c1cccc(-c2cc3c(C(=O)NC)c(-c4ccc(F)cc4)oc3cc2N(CC)CC)c1` [Compound 1004] gave an EC50 below 100 nM.
`CCN(CC)c1cc2oc(-c3ccc(F)cc3)c(C(=O)NC)c2cc1-c1cccc(C(=O)NC2CC(O)C2)c1` (centres unmarked) [Compound 1005] registered an EC50 below 100 nM.
The compound `CCN(CC)c1cc2oc(-c3ccc(F)cc3)c(C(=O)NC)c2cc1-c1cccc(C(=O)NC2CCC(O)C2)c1` (centres unmarked) [Compound 1006] returned an EC50 of 44.5 nM.
In turn, `CCOC(=O)[C@H]1CCCC[C@@H]1NC(=O)c1cccc(-c2cc3c(C(=O)NC)c(-c4ccc(F)cc4)oc3cc2N(CC)CC)c1` [Compound 1007] showed an EC50 below 100 nM.
On to `CCOC(=O)CC1(NC(=O)c2cccc(-c3cc4c(C(=O)NC)c(-c5ccc(F)cc5)oc4cc3N(CC)CC)c2)CCCCC1` [Compound 1008], for which the EC50 is below 100 nM.
In the case of `CCN(CC)c1cc2oc(-c3ccc(F)cc3)c(C(=O)NC)c2cc1-c1cccc(C(=O)N[C@H]2CC=CC[C@H]2CO)c1` [Compound 1009] it was below 100 nM.
Turning to `CCN(CC)c1cc2oc(-c3ccc(F)cc3)c(C(=O)NC)c2cc1-c1cccc(C(=O)NCc2ccccc2C(=O)OC)c1` [Compound 1010], the EC50 was below 100 nM.
Compound `CCN(CC)c1cc2oc(-c3ccc(F)cc3)c(C(=O)NC)c2cc1-c1cccc(C(=O)NCC2(Cn3cccn3)CC2)c1` [Compound 1011] yielded an EC50 of 26.1 nM.
Compound `CCN(CC)c1cc2oc(-c3ccc(F)cc3)c(C(=O)NC)c2cc1-c1cccc(C(=O)NCCCn2ccnc2)c1` [Compound 1012] registered an EC50 below 100 nM.
The compound `CCN(CC)c1cc2oc(-c3ccc(F)cc3)c(C(=O)NC)c2cc1-c1cccc(C(=O)NCCCn2cncn2)c1` [Compound 1013] showed an EC50 below 100 nM.
`CCN(CC)c1cc2oc(-c3ccc(F)cc3)c(C(=O)NC)c2cc1-c1cccc(C(=O)NCCN2CCNC2=O)c1` [Compound 1014] returned an EC50 below 100 nM.
Compound `CCOP(=O)(CCCNC(=O)c1cccc(-c2cc3c(C(=O)NC)c(-c4ccc(F)cc4)oc3cc2N(CC)CC)c1)OCC` [Compound 1015] showed a half-maximal effective concentration (EC50) below 100 nM.
As to `CCN(CC)c1cc2oc(-c3ccc(F)cc3)c(C(=O)NC)c2cc1-c1cccc(C(=O)NCCNS(=O)(=O)c2ccc(C)cc2)c1` [Compound 1016], the EC50 was determined as 32.5 nM.
In turn, `CCN(CC)c1cc2oc(-c3ccc(F)cc3)c(C(=O)NC)c2cc1-c1cccc(C(=O)NCC(=N)N)c1` [Compound 1017] yielded a concentration for a half-maximal effect (EC50) of 100 to 1000 nM.
As for `CCN(CC)c1cc2oc(-c3ccc(F)cc3)c(C(=O)NC)c2cc1-c1cccc(C(=O)NCC2(c3ccccc3)CC2)c1` [Compound 1018], the EC50 was in the range of 100 to 1000 nM.
To `CCN(CC)c1cc2oc(-c3ccc(F)cc3)c(C(=O)NC)c2cc1-c1cccc(C(=O)NCC2(C#N)CC2)c1` [Compound 1019] belongs below 100 nM.
On to `CCN(CC)c1cc2oc(-c3ccc(F)cc3)c(C(=O)NC)c2cc1-c1cccc(C(=O)NCC2(COC)CC2)c1` [Compound 1020], for which the EC50 was below 100 nM.
Compound `CCN(CC)c1cc2oc(-c3ccc(F)cc3)c(C(=O)NC)c2cc1-c1cccc(C(=O)NCC2(COc3ccccc3)CC2)c1` [Compound 1021] displayed an EC50 of 172 nM.
The compound `CCN(CC)c1cc2oc(-c3ccc(F)cc3)c(C(=O)NC)c2cc1-c1cccc(C(=O)NCCCOc2ccccc2)c1` [Compound 1022] returned an EC50 below 100 nM.
In the case of `CCN(CC)c1cc2oc(-c3ccc(F)cc3)c(C(=O)NC)c2cc1-c1cccc(C(=O)NCCOc2ccccc2)c1` [Compound 1023], the EC50 was below 100 nM.
